How the values were obtained:
[1] = target: Death-associated protein kinase 1 (Homo sapiens) (UniProt P53355); assay: Inhibition of human DAPK1 (1 to 363) assessed as remaining enzyme activity at 50 uM after 30 mins by 33P-ATP filter-binding assay
[2] = target: Serine/threonine-protein kinase Chk2 (Homo sapiens) (UniProt O96017); assay: Inhibition of human CHK2 (5 to 543 residues) assessed as remaining enzyme activity at 50 uM after 30 mins by 33P-ATP filter-binding assay
[3] = target: Maternal embryonic leucine zipper kinase (Homo sapiens) (UniProt Q14680); assay: Inhibition of human MELK (2 to 651 residues) assessed as remaining enzyme activity at 50 uM after 30 mins by 33P-ATP filter-binding assay
[4] = target: Testis-specific serine/threonine-protein kinase 1 (Homo sapiens) (UniProt Q9BXA7); assay: Inhibition of human TSSK1 (1 to 367 residues) assessed as remaining enzyme activity at 50 uM after 30 mins by 33P-ATP filter-binding assay
[5] = target: Inhibitor of nuclear factor kappa-B kinase subunit beta (Homo sapiens) (UniProt O14920); assay: Inhibition of human IKKb (1 to 736 residues) assessed as remaining enzyme activity at 50 uM after 30 mins by 33P-ATP filter-binding assay
[6] = target: Inhibitor of nuclear factor kappa-B kinase subunit epsilon (Homo sapiens) (UniProt Q14164); assay: Inhibition of human IKKe (1 to 716 residues) assessed as remaining enzyme activity at 50 uM after 30 mins by 33P-ATP filter-binding assay
[7] = target: Serine/threonine-protein kinase TBK1 (Homo sapiens) (UniProt Q9UHD2); assay: Inhibition of human TBK1 (1 to 729 residues) assessed as remaining enzyme activity at 50 uM after 30 mins by 33P-ATP filter-binding assay
[8] = target: Serine/threonine-protein kinase pim-1 (Homo sapiens) (UniProt P11309); assay: Inhibition of human PIM1 (2 to 313 residues) assessed as remaining enzyme activity at 50 uM after 30 mins by 33P-ATP filter-binding assay
[9] = target: Eukaryotic elongation factor 2 kinase (Homo sapiens) (UniProt O00418); assay: Inhibition of human EF2K (2 to 725 residues) assessed as remaining enzyme activity at 50 uM after 30 mins by 33P-ATP filter-binding assay
[10] = target: Serine/threonine-protein kinase 26 (Homo sapiens) (UniProt Q9P289); assay: Inhibition of human MST4 (2 to 416 residues) assessed as remaining enzyme activity at 50 uM after 30 mins by 33P-ATP filter-binding assay
[11] = target: Mitogen-activated protein kinase kinase kinase 1 (Homo sapiens) (UniProt Q13233); assay: Inhibition of human MEKK1 (877 to1563 residues) assessed as remaining enzyme activity at 50 uM after 30 mins by 33P-ATP filter-binding assay
[12] = target: Mitogen-activated protein kinase kinase kinase 11 (Homo sapiens) (UniProt Q16584); assay: Inhibition of human MLK3 (96 to 386 residues) assessed as remaining enzyme activity at 50 uM after 30 mins by 33P-ATP filter-binding assay
[13] = target: Mitogen-activated protein kinase kinase kinase 5 (Homo sapiens) (UniProt Q99683); assay: Inhibition of human ASK1 (670 to 950 residues) assessed as remaining enzyme activity at 50 uM after 30 mins by 33P-ATP filter-binding assay
[14] = target: Tyrosine-protein kinase Yes (Homo sapiens) (UniProt P07947); assay: Inhibition of human YES1 (1 to 543 residues) assessed as remaining enzyme activity at 50 uM after 30 mins by 33P-ATP filter-binding assay
[15] = target: Tyrosine-protein kinase BTK (Homo sapiens) (UniProt Q06187); assay: Inhibition of human BTK (2 to 659 residues) assessed as remaining enzyme activity at 50 uM after 30 mins by 33P-ATP filter-binding assay
[16] = target: Protein-tyrosine kinase 6 (Homo sapiens) (UniProt Q13882); assay: Inhibition of human BRK (1 to 451 residues) assessed as remaining enzyme activity at 50 uM after 30 mins by 33P-ATP filter-binding assay
[17] = target: Ephrin type-B receptor 1 (Homo sapiens) (UniProt P54762); assay: Inhibition of human EPHB1 (565 to 984 residues) assessed as remaining enzyme activity at 50 uM after 30 mins by 33P-ATP filter-binding assay
[18] = target: Ephrin type-B receptor 3 (Homo sapiens) (UniProt P54753); assay: Inhibition of human EPHB3 (561 to 998 residues) assessed as remaining enzyme activity at 50 uM after 30 mins by 33P-ATP filter-binding assay
[19] = test system: HL-60; assay: Induction of apoptosis in human HL60 cells assessed as apoptotic cells at 1 uM (reference value: 1 %); type: functional
[20] = Cell cycle arrest in human HL60 cells assessed as accumulation at G1 phase at 1 uM (reference value: 59 %); type: functional, cell-based; details: HL-60
[21] = Cell cycle arrest in human HL60 cells assessed as accumulation at G2 phase at 1 uM (reference value: 5 %); type: functional, cell-based; details: HL-60
[22] = Cell cycle arrest in human HL60 cells assessed as accumulation at S phase at 10 uM (reference value: 36 %); type: functional, cell-based; details: HL-60
[23] = Partition coefficient, logP of the compound in water/PBS buffer at pH 7.4 at 25 degC after 20 mins by shake flask method; type: physicochemical
[24] = target: Serine/threonine-protein kinase MARK2 (Homo sapiens) (UniProt Q7KZI7); assay: Inhibition of human MARK2 (2 to 691 residues) assessed as remaining enzyme activity at 50 uM after 30 mins by 33P-ATP filter-binding assay
[25] = Cytotoxicity against human PC3 cells assessed as cell growth inhibition after 48 hrs by MTT assay; type: functional; details: PC-3, 48 h
[26] = Cytotoxicity against human FR2 cells assessed as cell growth inhibition after 48 hrs by MTT assay; type: cell-based
[27] = target: Mitogen-activated protein kinase 9 (Homo sapiens) (UniProt P45984); assay: Inhibition of human JNK2 (1 to 424 residues) assessed as remaining enzyme activity at 50 uM after 30 mins by 33P-ATP filter-binding assay
[28] = target: 3-phosphoinositide-dependent protein kinase 1 (Homo sapiens) (UniProt O15530); assay: Inhibition of human PDK1 (52 to 556 residues) assessed as remaining enzyme activity at 50 uM after 30 mins by 33P-ATP filter-binding assay
[29] = species: Homo sapiens; assay: Inhibition of human PKA assessed as remaining enzyme activity at 50 uM after 30 mins by 33P-ATP filter-binding assay
[30] = target: Serine/threonine-protein kinase N2 (Homo sapiens) (UniProt Q16513); assay: Inhibition of human PRK2 (501 to 984 residues) assessed as remaining enzyme activity at 50 uM after 30 mins by 33P-ATP filter-binding assay
[31] = target: Protein kinase C gamma type (Homo sapiens) (UniProt P05129); assay: Inhibition of human PKCgamma (1 to 697 residues) assessed as remaining enzyme activity at 50 uM after 30 mins by 33P-ATP filter-binding assay

Activity [2]: 60% | Activity [3]: 80% | Activity [4]: 81% | Activity [5]: 83% | Activity [6]: 69% | Activity [7]: 55% | Activity [8]: 27% | Activity [9]: 84% | Activity [10]: 68% | Activity [11]: 83% | Activity [12]: 58% | Activity [13]: 96% | Activity [14]: 57% | Activity [15]: 58% | Activity [16]: 93% | Activity [17]: 54% | Activity [18]: 82% | logD at 20 min [23]: -0.55 | Activity [24]: 69% | Activity [27]: 107% | Activity [28]: 90% | Activity [29]: 88% | Activity [30]: 42% | Activity [31]: 89%
SMILES: Cc1cc(=O)c2c(O)cc(O)c([C@H]3CCN(C)C[C@H]3O)c2o1 [ROHITUKINE]
Activity [1]: 96% | Activity [19]: 1% | Activity [20]: 34% | Activity [21]: 13% | Activity [22]: 48% | GI50 [25]: 19 µM | GI50 at 48 h [26]: > 50 µM

Source: ChEMBL document CHEMBL3826966, “A chromatography-free isolation of rohitukine from leaves of Dysoxylum binectariferum: Evaluation for in vitro cytotoxicity, Cdk inhibition and physicochemical properties” (Bioorg Med Chem Lett, 2016)
